28 molecules from US9255090B2, “Heterocyclyl derivatives and their use as prostaglandin D2 receptor modulators” (Actelion Pharmaceuticals Ltd., priority 2012, dated 2016) can be followed below.

Structures can show the parent of a compound that is named as a salt.

The assay addresses hCRTH2 receptor (Homo sapiens (Human), UniProt Q9Y5Y4). Nature of the assay: hCRTH2 receptor membranes radioligand (3H-PGD2) displacement assay. It is filed as binding. Conditions: 3H-PGD2 radioligand displacement, HEK293-hCRTH2 membranes. Here is the method: Biological Assays: Preparation of hCRTH2 Receptor Membranes and Radioligand Displacement Assay:
First, recombinant HEK293-hCRTH2 cells were detached from culture plates into 5 ml buffer A/plate (Buffer A: 5 mM Tris, 1 mM MgCl2-6H2O pH=7.4) using a rubber policeman. Cells were then transferred into centrifugation tubes and centrifuged for 5 min at 400 g. The cell pellet was resuspended in the same buffer and tubes were frozen at −80° C. Cells were thawed and membrane fragments were generated by homogenization using a polytron homogenizer (30 seconds). The membrane fragments were then centrifuged at 3000 g for 20 minutes and resuspended in buffer C (Buffer C: 75 mM Tris, 25 mM MgCl2, 250 mM Saccharose pH 7.4). Aliquots of membrane fragments were stored at −20° C.
Binding assay was performed in a final assay volume of 250 μl. First, 25 μl of test compound, previously diluted in Binding-Buffer (Binding-Buffer: 50 mM Tris-Base, 100 mM NaCl, 1 mM EDTA, 0.1% BSA (protease free), 0.01% NaN3, 10 mM MnCl2, pH 7.0) was placed into each well. After addition of 75 μl Binding-Buffer, 50 μl of the radioligand ^3H-PGD2 (at 2.5 nM (220.000 dpm/well) from ANAWA ART0662) was added to each well. Binding assay was started by addition of 100 μl CRTH2 membrane fragments, reaching a final concentration of 20 μg/well. For non-specific binding, PGD2 was added to the reaction mixture to […] final concentration. This assay mix was incubated for 90 minutes at room temperature and then filtered through a GF/C filter 96-well plate which was pre-soaked for 3 hours in 0.5% polyethyleneimine (PEI). The filter-wells were washed three times with ice cold Binding-Buffer. Then, 40 μl of Microscint-40 (Packard) was added to each well and the retained radioactivity quantified in a Topcount (Packard).

Sequence of hCRTH2 receptor (Q9Y5Y4 whole entry, the tested form may be a part): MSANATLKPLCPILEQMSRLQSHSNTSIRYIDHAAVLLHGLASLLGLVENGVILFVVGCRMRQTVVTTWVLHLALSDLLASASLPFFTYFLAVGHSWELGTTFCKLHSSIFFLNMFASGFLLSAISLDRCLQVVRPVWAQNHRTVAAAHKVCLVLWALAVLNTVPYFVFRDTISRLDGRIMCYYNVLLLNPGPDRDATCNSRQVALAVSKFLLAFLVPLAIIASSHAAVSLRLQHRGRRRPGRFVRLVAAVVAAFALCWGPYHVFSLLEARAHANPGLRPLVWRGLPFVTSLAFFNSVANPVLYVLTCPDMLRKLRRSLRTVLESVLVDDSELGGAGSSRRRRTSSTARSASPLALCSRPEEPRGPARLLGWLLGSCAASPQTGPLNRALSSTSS

In turn, `CCOc1cc(CC(=O)O)ccc1-c1ccc(F)c2c1CN(C(=O)NCc1ccccc1)CC2` [Example 446, [4-(2-Benzylcarbamoyl-5-fluoro-1,2,3,4-tetrahydro-isoquinolin-8-yl)-3-ethoxy-phenyl]-acetic acid] returned an IC50 of 4.7 nM.

In turn, `O=C(O)Cc1cccc(-c2ccc(F)c3c2CN(C(=O)OCc2ccccc2)CC3)c1` [Example 24, 8-(3-Carboxymethyl-phenyl)-5-fluoro-3,4-dihydro-1H-isoquinoline-2-carboxylic acid benzyl ester] yielded an IC50 of 69.5 nM.

For `COc1cc(CC(=O)O)ccc1-c1ccc(F)c2c1CN(C(=O)CCOc1ccc(F)cc1)CC2` [Example 192, (4-{5-Fluoro-2-[3-(4-fluoro-phenoxy)-propionyl]-1,2,3,4-tetrahydro-isoquinolin-8-yl}-3-methoxy-phenyl)-acetic acid], the IC50 was 0.69 nM.

In turn, `COc1ccc(CC(=O)O)cc1-c1ccc(F)c2c1CN(C(=O)Cc1n[nH]c3ccccc13)CC2` [Example 124, {3-[5-Fluoro-2-(2-1H-indazol-3-yl-acetyl)-1,2,3,4-tetrahydro-isoquinolin-8-yl]-4-methoxy-phenyl}-acetic acid] yielded an IC50 of 10.5 nM.

In turn, `COc1ccc(CC(=O)O)cc1-c1ccc(S(C)(=O)=O)c2c1CN(C(=O)OCc1ccccc1)CC2` [Example 25, 8-(5-Carboxymethyl-2-methoxy-phenyl)-5-methanesulfonyl-3,4-dihydro-1H-isoquinoline-2-carboxylic acid benzyl ester] gave an IC50 of 149 nM.

In turn, `CCOc1ccc(CC(=O)O)cc1-c1ccc(F)c2c1CN(C(=O)CC(CC)c1ccccn1)CC2` (racemic) [Example 308] yielded an IC50 of 13.1 nM.

In turn, `COc1ccc(CC(=O)O)cc1-c1ccc(F)c2c1CN(C(=O)C(C)Cc1ccccc1)CC2` (racemic) [Example 109, (±)-{3-[5-Fluoro-2-(2-methyl-3-phenyl-propionyl)-1,2,3,4-tetrahydro-isoquinolin-8-yl]-4-methoxy-phenyl}-acetic acid] came in with an IC50 of 28.9 nM.

The molecule `CCOc1cc(CC(=O)O)ccc1-c1ccc(F)c2c1CN(C(=O)CC1(C)CCCc3ccccc31)CC2` (racemic) [Example 326] gave an IC50 of 2 nM.

`COc1ccc(CC(=O)O)cc1-c1ccc(F)c2c1CN(C(=O)COc1ccc(F)cc1)CC2` [Example 44, (3-{5-Fluoro-2-[2-(4-fluoro-phenoxy)-acetyl]-1,2,3,4-tetrahydro-isoquinolin-8-yl}-4-methoxy-phenyl)-acetic acid] returned an IC50 of 59.1 nM.

With `CCOc1ccc(CC(=O)O)cc1-c1ccc(F)c2c1CN(C(=O)Cc1ccccn1)CC2` [Example 340, {4-Ethoxy-3-[5-fluoro-2-(2-pyridin-2-yl-acetyl)-1,2,3,4-tetrahydro-isoquinolin-8-yl]-phenyl}-acetic acid], the half-inhibitory concentration (IC50) came out at 897 nM.

As to `COc1ccc(CC(=O)O)cc1-c1ccc(F)c2c1CN(C(=O)CC1CC1)CC2` [Example 254, {3-[2-(2-Cyclopropyl-acetyl)-5-fluoro-1,2,3,4-tetrahydro-isoquinolin-8-yl]-4-methoxy-phenyl}-acetic acid], the IC50 was found to be 614 nM.

As to `COc1ccc(CC(=O)O)cc1-c1ccc(Cl)c2c1CN(C(=O)CCc1ccccc1)CC2` [Example 76, {3-[5-Chloro-2-(3-phenyl-propionyl)-1,2,3,4-tetrahydro-isoquinolin-8-yl]-4-methoxy-phenyl}-acetic acid], the IC50 amounted to 43.1 nM.

In turn, `COc1ccc(CC(=O)O)cc1-c1ccc(F)c2c1CN(C(=O)CC1CCCc3ccncc31)CC2` (racemic) [Example 247, hydrochloride] registered a concentration for half-maximal inhibition (IC50) of 484 nM.

`COc1ccc(CC(=O)O)cc1-c1ccc(F)c2c1CN(C(=O)CC1CCOc3ccc(F)cc31)CC2` (racemic) [Example 244] yielded an IC50 of 158 nM.

The molecule `O=C(O)Cc1ccc(OCC(F)(F)F)c(-c2ccc(F)c3c2CN(C(=O)CC2COCc4ccccc42)CC3)c1` (racemic) [Example 305] had an IC50 of 3.4 nM.

On to `CCOc1ccc(CC(=O)O)cc1-c1ccc(F)c2c1CN(C(=O)NCc1ccc(F)cc1)CC2` [Example 434, {4-Ethoxy-3-[5-fluoro-2-(4-fluoro-benzylcarbamoyl)-1,2,3,4-tetrahydro-isoquinolin-8-yl]-phenyl}-acetic acid], for which the half-maximal inhibitory concentration (IC50) stood at 0.7 nM.

Molecule `CCOc1ccc(CC(=O)O)cc1-c1ccc(F)c2c1CN(C(=O)C(C)Cc1ccccc1)CC2` (stereo not shown) [Example 213] gave an IC50 of 111 nM.

`COc1ccc(CC(=O)O)cc1-c1ccc(F)c2c1CN(C(=O)COC(C)(C)C)CC2` [Example 47, {3-[2-(2-tert-Butoxy-acetyl)-5-fluoro-1,2,3,4-tetrahydro-isoquinolin-8-yl]-4-methoxy-phenyl}-acetic acid] gave an IC50 of 551 nM.

In the case of `COc1ccc(CC(=O)O)cc1-c1ccc(F)c2c1CN(C(=O)NCc1ccccc1F)CC2` [Example 130, {3-[5-Fluoro-2-(2-fluoro-benzylcarbamoyl)-1,2,3,4-tetrahydro-isoquinolin-8-yl]-4-methoxy-phenyl}-acetic acid], the 50% inhibitory concentration (IC50) turned out to be 17.7 nM.

In the case of `COc1ccc(CC(=O)O)cc1-c1ccc(F)c2c1CN(C(=O)CC(c1ccccc1)C(C)C)CC2` (racemic) [Example 264], the IC50 was 253 nM.

Molecule `CCOc1cc(C(C)C(=O)O)ccc1-c1ccc(F)c2c1CN(C(=O)OCc1ccccc1)CC2` (racemic) [Example 425] returned an IC50 of 11.3 nM.

`O=C(O)Cc1ccc(F)c(-c2ccc(F)c3c2CN(C(=O)OCc2ccccc2)CC3)c1` [Example 10, 8-(5-Carboxymethyl-2-fluoro-phenyl)-5-fluoro-3,4-dihydro-1H-isoquinoline-2-carboxylic acid benzyl ester] came in with an IC50 of 10.1 nM.

Molecule `CCOc1ccc(CC(=O)O)cc1-c1ccc(F)c2c1CN(C(=O)CCc1ccccc1F)CC2` [Example 312, (4-Ethoxy-3-{5-fluoro-2-[3-(2-fluoro-phenyl)-propionyl]-1,2,3,4-tetrahydro-isoquinolin-8-yl}-phenyl)-acetic acid] displayed an IC50 of 4.8 nM.

The molecule `COc1ccc(CC(=O)O)cc1-c1ccc(F)c2c1CCN(C(=O)COCc1ccccc1Cl)C2` [Example 103, (3-{2-[2-(2-Chloro-benzyloxy)-acetyl]-8-fluoro-1,2,3,4-tetrahydro-isoquinolin-5-yl}-4-methoxy-phenyl)-acetic acid] returned an IC50 of 69.2 nM.

In turn, `COc1ccc(OC(C)C(=O)O)cc1-c1ccc(F)c2c1CN(C(=O)OCc1ccccc1)CC2` (racemic) [Example 414] came in with an IC50 of 430 nM.

Turning to `CCOc1cc(CC(=O)O)ccc1-c1ccc(F)c2c1CN(C(=O)NCc1ccccc1F)CC2` [Example 440, {3-Ethoxy-4-[5-fluoro-2-(2-fluoro-benzylcarbamoyl)-1,2,3,4-tetrahydro-isoquinolin-8-yl]-phenyl}-acetic acid], the IC50 amounted to 3.8 nM.

For `CCOc1ccc(CC(=O)O)cc1-c1ccc(F)c2c1CN(C(=O)NCc1cccc(F)c1)CC2` [Example 433, {4-Ethoxy-3-[5-fluoro-2-(3-fluoro-benzylcarbamoyl)-1,2,3,4-tetrahydro-isoquinolin-8-yl]-phenyl}-acetic acid], the IC50 was 59.3 nM.

As to `COc1ccc(C(C)C(=O)O)cc1-c1ccc(F)c2c1CN(C(=O)OCc1ccccc1)CC2` (racemic) [Example 171, (±)-8-[5-(1-Carboxy-ethyl)-2-methoxy-phenyl]-5-fluoro-3,4-dihydro-1H-isoquinoline-2-carboxylic acid benzyl ester], the IC50 is 21.2 nM.

The IC50 is the concentration that inhibits the measured activity by half.
